Test results reported in paper PMC10042540, “Targeting oncogenic KRasG13C with nucleotide-based covalent inhibitors” (eLife, 2023).

Key:
[1] = test system: GST-tagged cRafRBD (amino acids 51–131); test: Effector binding (pull-down experiments); conditions: in the presence of GppNHp alone or in combination with SOS
Experimental: Pull-down experiments were performed in 20 mM HEPES pH 7.5, 50 mM NaCl and 2 mM MgCl2. […] Afterwards, 50 µL glutathione magnetic beads were added to each sample for 30 min. After washing the beads with 500 µL buffer, the beads were settled with a magnet and the supernatant was carefully removed. The beads were resuspended in 50 µL of 4xSDS-loading buffer and visualized via SDS-PAGE (Figure 3—figure supplement 3).

[2] = test system: Ras pathway (pcRaf, pAkt, pErk, pS6); test: Electroporation into HeLa cells, western blot of downstream signalling; assay type: cell-based, human; conditions: electroporation of 50-300 µg protein
Experimental: HeLa cells were obtained from the American Type Culture Collection (ATCC) and were cultured in DMEM medium (Gibco) supplemented with 10% fetal bovine serum (FBS) (PAN-Biotech) and 1% penicillin/streptomycin (Gibco). Cells were cultured in a humidified incubator at 37 °C in the presence of 5% CO2. The identity of the cells was validated by STR profiling and the cells were tested negative for mycoplasma contamination.
Electroporation of full-length KRas constructs (KRasWT, KRasG13C, KRasG13C-edaGDP, KRasG13C:acetyledaGDP and KRasG13C-edaGppCp) was performed based on the protocol described by [Alex et al., 2019] using the Neon Transfection System Kit (Thermo Fisher). For electroporation, 3 million cells per experiment were harvested by trypsinization, washed with PBS, and resuspended in 85 µL of the electroporation buffer R (Thermo Fisher). Increasing amounts of recombinant protein samples for each construct (0, 50, 100, 200 and 300 µg) were diluted 1:1 in buffer R followed by the addition of 30 µL of this protein master mix to the cell suspension. This cellular slurry was loaded into a […] Neon Pipette Tip (Thermo Fisher) and electroporated with 2x35 ms pulses at 1000 V. After electroporation, the cells were washed twice with PBS (15 mL) to remove non-internalized extracellular protein and the cell pellet was resuspended in 2 mL complete growth media. Cells were transferred into six-well tissue culture plates (Sarstedt) and incubated for 24 hr at 37 °C and 5% CO2 in a humidified incubator for recovery before being processed for western blotting analysis.
After recovery of the electroporation, cells were washed twice with ice-cold PBS and lysed in 100 µL of phosphatase and protease inhibitor containing RIPA buffer (Cell Signaling Technology). Cells were incubated on ice for 30 min and then harvested by scraping followed by centrifugation at 14,000 rpm for 10 min at 4 °C. Protein concentrations were determined using the Pierce BCA protein assay (Thermo) following the manufacturer’s recommended procedure. Equal amounts of protein (10 µg) were analyzed by SDS-PAGE and transferred to Immobilon-FL PVDF membranes (Merck Millipore) using Pierce 1-step transfer buffer (Thermo) and the Pierce Power Blotter (Thermo). Membranes were washed with ddH2O for 5 min, blocked with OdysseyBlocking Buffer TBS (Li-Cor) for 1 hr at room temperature and then incubated with primary antibodies diluted in OdysseyBlocking Buffer TBS overnight at 4 °C with gentle agitation. […] Quantification of protein levels from western blots was performed using Empiria Studio (Li-Cor) (Figure 3B, C, Figure 3—figure supplements 6–9).

pAktS473 = test: Electroporation into HeLa cells, western blot quantification; assay type: cell-based, human; conditions: for pAkt mean fold change: mean of cell lysates
Procedure, shortened: (§1)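 HeLa cells electroporated (2×35 ms, 1000 V) with 0–300 µg recombinant full-length KRas WT or G13C constructs, washed, then recovered for 24 h at 37 °C. Lysates (10 µg protein) analysed by SDS-PAGE and fluorescent western blotting, with protein levels quantified from blot signal.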

tAkt1 = test: as above; assay type: cell-based, human; conditions: for tAkt mean fold change: mean of cell lysates
Procedure, shortened: as §1

tErk = test: as above; assay type: cell-based, human; conditions: for tErk mean fold change: mean of cell lysates
Procedure, shortened: as §1

Q: For “KRasG13C-edaGDP: KRasG13C covalently locked with edaGDP at Cys13”, which “binding to RafRBD (pull-down)” value [1] is on record?
A: The value was “neither in the presence of GppNHp nor of additional SOS able to bind to the RafRBD”.

Q: And the “downstream signalling (pcRaf, pAkt, pErk, pS6)” value [2]?
A: The value was “unable to induce these effects”.

Q: What about the pAkt fold change (pAktS473; 50 µg, Cell lysate 1) of the same substance?
A: The pAkt fold change was 0.89.

Q: And the pAkt fold change (pAktS473; 50 µg, Cell lysate 2)?
A: The pAkt fold change was 1.23.

Q: What about the “pAkt mean fold change” value (pAktS473; 50 µg) of the same substance?
A: Its value is 0.54.

Q: What about the pAkt fold change (pAktS473; 100 µg, Cell lysate 1) of the same substance?
A: The pAkt fold change was 0.28.

Q: What about the pAkt fold change (pAktS473; 100 µg, Cell lysate 2) of the same substance?
A: The pAkt fold change was 0.69.

Q: What about the pAkt fold change (pAktS473; 100 µg, Cell lysate 3) of the same substance?
A: Its pAkt fold change is 1.01.

Q: What about the “pAkt mean fold change” value (pAktS473; 100 µg) of the same substance?
A: The value was 0.66.

Q: What about the pAkt fold change (pAktS473; 200 µg, Cell lysate 1) of the same substance?
A: The pAkt fold change was 0.45.

Q: And the pAkt fold change (pAktS473; 200 µg, Cell lysate 2)?
A: Its pAkt fold change is 0.95.

Q: And the pAkt fold change (pAktS473; 200 µg, Cell lysate 3)?
A: The pAkt fold change was 0.56.

Q: And the “pAkt mean fold change” value (pAktS473; 200 µg)?
A: The value was 0.65.

Q: What about the pAkt fold change (pAktS473; 300 µg, Cell lysate 1) of the same substance?
A: The pAkt fold change was 0.63.

Q: What about the pAkt fold change (pAktS473; 300 µg, Cell lysate 2) of the same substance?
A: Its pAkt fold change is 0.97.

Q: And the pAkt fold change (pAktS473; 300 µg, Cell lysate 3)?
A: The pAkt fold change was 1.17.

Q: And the “pAkt mean fold change” value (pAktS473; 300 µg)?
A: Its value is 0.92.

Q: And the tAkt fold change (tAkt1; 50 µg, Cell lysate 1)?
A: The tAkt fold change was 0.65.

Q: And the tAkt fold change (tAkt1; 50 µg, Cell lysate 2)?
A: Its tAkt fold change is 1.23.

Q: And the tAkt fold change (tAkt1; 50 µg, Cell lysate 3)?
A: Its tAkt fold change is 1.06.

Q: What about the “tAkt mean fold change” value (tAkt1; 50 µg) of the same substance?
A: Its value is 0.98.

Q: What about the tAkt fold change (tAkt1; 100 µg, Cell lysate 1) of the same substance?
A: The tAkt fold change was 0.92.

Q: What about the tAkt fold change (tAkt1; 100 µg, Cell lysate 2) of the same substance?
A: Its tAkt fold change is 1.65.

Q: What about the tAkt fold change (tAkt1; 100 µg, Cell lysate 3) of the same substance?
A: Its tAkt fold change is 0.97.

Q: And the “tAkt mean fold change” value (tAkt1; 100 µg)?
A: Its value is 1.18.

Q: What about the tAkt fold change (tAkt1; 200 µg, Cell lysate 1) of the same substance?
A: The tAkt fold change was 1.06.

Q: And the tAkt fold change (tAkt1; 200 µg, Cell lysate 2)?
A: Its tAkt fold change is 1.22.

Q: And the tAkt fold change (tAkt1; 200 µg, Cell lysate 3)?
A: Its tAkt fold change is 0.78.

Q: And the “tAkt mean fold change” value (tAkt1; 200 µg)?
A: Its value is 1.02.

Q: And the tAkt fold change (tAkt1; 300 µg, Cell lysate 1)?
A: The tAkt fold change was 0.92.

Q: And the tAkt fold change (tAkt1; 300 µg, Cell lysate 2)?
A: The tAkt fold change was 0.97.

Q: What about the tAkt fold change (tAkt1; 300 µg, Cell lysate 3) of the same substance?
A: The tAkt fold change was 0.68.

Q: What about the “tAkt mean fold change” value (tAkt1; 300 µg) of the same substance?
A: Its value is 0.86.

Q: And the tErk fold change (tErk; 50 µg, Cell lysate 1)?
A: The tErk fold change was 0.84.

Q: And the tErk fold change (tErk; 50 µg, Cell lysate 2)?
A: The tErk fold change was 2.08.

Q: What about the tErk fold change (tErk; 50 µg, Cell lysate 3) of the same substance?
A: Its tErk fold change is 0.64.

Q: What about the “tErk mean fold change” value (tErk; 50 µg) of the same substance?
A: The value was 1.19.

Q: And the tErk fold change (tErk; 100 µg, Cell lysate 1)?
A: Its tErk fold change is 0.91.

Q: What about the tErk fold change (tErk; 100 µg, Cell lysate 2) of the same substance?
A: Its tErk fold change is 1.86.

Q: And the tErk fold change (tErk; 100 µg, Cell lysate 3)?
A: The tErk fold change was 0.78.

Q: And the “tErk mean fold change” value (tErk; 100 µg)?
A: The value was 1.18.

Q: What about the tErk fold change (tErk; 200 µg, Cell lysate 1) of the same substance?
A: Its tErk fold change is 1.12.

Q: What about the tErk fold change (tErk; 200 µg, Cell lysate 2) of the same substance?
A: The tErk fold change was 1.76.

Q: What about the tErk fold change (tErk; 200 µg, Cell lysate 3) of the same substance?
A: Its tErk fold change is 0.74.

Q: What about the “tErk mean fold change” value (tErk; 200 µg) of the same substance?
A: The value was 1.21.

Q: What about the tErk fold change (tErk; 300 µg, Cell lysate 1) of the same substance?
A: Its tErk fold change is 1.26.

Q: What about the tErk fold change (tErk; 300 µg, Cell lysate 2) of the same substance?
A: Its tErk fold change is 1.23.

Q: What about the tErk fold change (tErk; 300 µg, Cell lysate 3) of the same substance?
A: Its tErk fold change is 0.72.

Q: What about the “tErk mean fold change” value (tErk; 300 µg) of the same substance?
A: Its value is 1.07.
